The assay addresses human S1P3 receptor (Homo sapiens (Human), UniProt Q99500). Briefly: Activation or block of activation of human S1P3 receptor, Ca+2 FLIPR assay. The format is cell-based. The settings on record: for IC50: read-out: S1P3 IC50. How it is done:
Compounds were assessed for their ability to activate or block activation of the human S1P3 receptor in T24 cells stably expressing the human S1P3 receptor. Ten thousand cells/well were plated into 384-well poly-D-lysine coated plates one day prior to use. The growth media for the S1P3 receptor expressing cell line was McCoy's 5A medium supplemented with 10% charcoal-treated fetal bovine serum (FBS), 1% antibiotic-antimycotic and 400 μg/ml geneticin. On the day of the experiment, the cells were washed twice with Hank's Balanced Salt Solution supplemented with 20 mM HEPES (HBSS/Hepes buffer). […] Extracellular dye was removed by washing the cell plates four times prior to placing the plates in the FLIPR (Fluorometric Imaging Plate Reader, Molecular Devices). Ligands were diluted in HBSS/Hepes buffer and prepared in 384-well microplates. The positive control, Sphingosine-1-Phosphate (S1P), was diluted in HBSS/Hepes buffer with 4 mg/ml fatty acid free bovine serum albumin. The FLIPR transferred 12.5 μl from the ligand microplate to the cell plate and took fluorescent measurements for 75 seconds, taking readings every second, and then for 2.5 minutes, taking readings every 10 seconds. […] IC50 values were determined through a […] analysis using the Levenburg Marquardt algorithm.

Where [1] appears, read: T24 cells stably expressing the human S1P3 receptor, FLIPR Ca+2 response, 0.61 nM to 10,000 nM.
Setting [2] is: T24 cells stably expressing the human S1P3 receptor, value in brackets.

Like-named read-outs stand apart in the source and are kept apart here.

human S1P3 receptor, sequence (Q99500 whole entry): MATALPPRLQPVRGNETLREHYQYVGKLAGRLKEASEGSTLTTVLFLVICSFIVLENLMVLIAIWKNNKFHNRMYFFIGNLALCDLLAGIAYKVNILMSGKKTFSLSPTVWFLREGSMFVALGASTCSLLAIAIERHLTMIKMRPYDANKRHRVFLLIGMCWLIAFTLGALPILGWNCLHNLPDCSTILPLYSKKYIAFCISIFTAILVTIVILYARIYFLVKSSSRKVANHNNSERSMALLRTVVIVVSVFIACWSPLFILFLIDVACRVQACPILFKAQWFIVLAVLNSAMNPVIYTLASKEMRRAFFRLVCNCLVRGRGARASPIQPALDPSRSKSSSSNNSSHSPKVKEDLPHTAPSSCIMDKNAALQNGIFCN

The IC50 is the midpoint of a concentration-inhibition curve. Turning to `CCCCCCOc1ccc2c(C(=O)NCc3ccc(F)c(F)c3)c(C(C)C)n(Cc3ccccc3)c2c1` [Compound 14, 1-Benzyl-N-(3,4-difluorobenzyl)-6-(hexoxy)-2-isopropyl-1H-indole-3-carboxamide], the “S1P3 (% inh)” value is 3.1 μM (96) % and the IC50 came out at 3100 nM.
For `CC(C)c1c(C(=O)NCc2ccc(F)c(F)c2)c2ccc(OCc3ccccc3)cc2n1Cc1ccccc1` [Compound 15, 1-Benzyl-6-(benzyloxy)-N-(3,4-difluorobenzyl)-2-isopropyl-1H-indole-3-carboxamide], the “S1P3 (% inh)” value is given as 260 nM (100) % and the IC50 is 260 nM.
Regarding `CC(C)c1c(C(=O)NCc2ccc(F)c(F)c2)c2ccc(OC3CCCC3)cc2n1Cc1ccccc1` [Compound 16, 1-Benzyl-6-(cyclopentoxy)-N-(3,4-difluorobenzyl)-2-isopropyl-1H-indole-3-carboxamide], the Kb was 1.2 nM, the “S1P3 (% inh)” value is listed as 3 nM (100) 1.2 nM % and the IC50 came to 3 nM.
Take `COCCOc1ccc2c(C(=O)NCc3ccc(F)c(F)c3)c(C(C)C)n(Cc3ccccc3)c2c1` [Compound 17, 1-Benzyl-N-(3,4-difluorobenzyl)-2-isopropyl-6-(2-methoxyethoxy)-1H-indole-3-carboxamide]: under setting [1], the IC50 stood at 6.5 nM. Also, the “S1P3 (% inh)” value under setting [2] is 99%.
On the same counts, the results for `CC(C)c1c(C(=O)NCc2ccc(F)c(F)c2)c2ccc(OCCN(C)C)cc2n1Cc1ccccc1` [Compound 18, 1-Benzyl-N-(3,4-difluorobenzyl)-6-(2-(dimethylamino)ethoxy)-2-isopropyl-1H-indole-3-carboxamide] are 242 nM and 94%.
For `CC(C)c1c(C(=O)NCc2ccc(F)c(F)c2)c2ccc(OC3CCOC3)cc2n1Cc1ccccc1` (stereo not shown) [Compound 19, 1-Benzyl-N-(3,4-difluorobenzyl)-2-isopropyl-6-(tetrahydrofuran-3-yloxy)-1H-indole-3-carboxamide] the same measures were 6 nM and 100%.
Turning to `CC(C)c1c(C(=O)NCc2ccc(F)c(F)c2)c2ccc(OC3CCOC3=O)cc2n1Cc1ccccc1` (stereo not shown) [Compound 20, 1-Benzyl-N-(3,4-difluorobenzyl)-2-isopropyl-6-(2-oxotetrahydrofuran-3-yloxy)-1H-indole-3-carboxamide], the IC50 under setting [1] was 81 nM. Besides, the “S1P3 (% inh)” value under setting [2] is recorded as 100%.
On the same counts, the results for `CC(C)c1c(C(=O)NCc2ccc(F)c(F)c2)c2ccc(OC(=O)N(C)C)cc2n1Cc1ccccc1` [Compound 21, 1-benzyl-3-(3,4-difluorobenzylcarbamoyl)-2-isopropyl-1H-indol-6-yl Dimethylcarbamate] are 24 nM and 99%.
For the compound `CC(C)c1c(C(=O)NCc2ccc(F)c(F)c2)c2ccc(OC(=O)C(C)(C)C)cc2n1Cc1ccccc1` [Compound 22, 1-Benzyl-3-(3,4-difluorobenzylcarbamoyl)-2-isopropyl-1H-indol-6-yl Pivalate], the “S1P3 (% inh)” value was 4 nM (99) % and the IC50 was 4 nM.
For `CC(=O)Oc1ccc2c(C(=O)NCc3ccc(F)c(F)c3)c(C(C)C)n(Cc3ccccc3)c2c1` [Compound 23, 1-Benzyl-3-(3,4-difluorobenzylcarbamoyl)-2-isopropyl-1H-indol-6-yl Acetate] the same measures were 14 nM (100) % and 14 nM.
For `CCC(=O)Oc1ccc2c(C(=O)NCc3ccc(F)c(F)c3)c(C(C)C)n(Cc3ccccc3)c2c1` [Compound 24, 1-Benzyl-3-(3,4-difluorobenzylcarbamoyl)-2-isopropyl-1H-indol-6-yl Propionate] the same measures were 20 nM (100) % and 20 nM.
On the same counts, the results for `CC(C)C(=O)Oc1ccc2c(C(=O)NCc3ccc(F)c(F)c3)c(C(C)C)n(Cc3ccccc3)c2c1` [Compound 25, 1-Benzyl-3-(3,4-difluorobenzylcarbamoyl)-2-isopropyl-1H-indol-6-yl Isobutyrate] are 14 nM (100) % and 14 nM.
For `COCOc1ccc2c(C(=O)NCc3ccc(F)c(F)c3)c(C(C)C)n(Cc3ccccc3)c2c1` [Compound 26, 1-Benzyl-N-(3,4-difluorobenzyl)-2-isopropyl-6-(methoxymethoxy)-1H-indole-3-carboxamide], the Kb turned out to be 13 nM, the “S1P3 (% inh)” value was 39 nM (100) 13 nM % and the IC50 is 39 nM.
On to `CC(C)c1c(C(=O)NCc2ccc(F)c(F)c2)c2ccc(OC3CCCO3)cc2n1Cc1ccccc1` (stereo not shown) [Compound 27, 1-Benzyl-N-(3,4-difluorobenzyl)-2-isopropyl-6-(tetrahydrofuran-2-yloxy)-1H-indole-3-carboxamide], for which the Kb worked out at 11 nM, the “S1P3 (% inh)” value is 6 nM (100) 11 nM % and the IC50 came to 6 nM.
In the case of `CCOC(=O)c1ccc2c(C(=O)NCc3ccc(F)c(F)c3)c(C(C)C)n(Cc3ccccc3)c2c1` [Compound 43, Ethyl 1-Benzyl-3-(3,4-difluorobenzylcarbamoyl)-2-isopropyl-1H-indole-6-carboxylate], the IC50 under setting [1] was 7 nM. Further, for the setting “T24 cells stably expressing the human S1P3 receptor, second concentration in the cell, read-out: S1P3 Kb”, the Kb turned out to be 8 nM. The “S1P3 (% inh)” value under setting [2] stood at 100%.
For `CCOC(=O)c1ccc2c(C(=O)NCc3cncc(F)c3)c(C(C)C)n(Cc3ccccc3)c2c1` [Compound 44, Ethyl 1-Benzyl-3-((5-fluoropyridin-3-yl)methylcarbamoyl)-2-isopropyl-1H-indole-6-carboxylate], the “S1P3 (% inh)” value is 24 nM (100) % and the IC50 was 24 nM.
For `CCOC(=O)c1ccc2c(C(=O)NCc3ccc(F)c(F)c3)c(C(C)C)n(Cc3cccnc3)c2c1` [Compound 46, Ethyl 3-(3,4-Difluorobenzylcarbamoyl)-2-isopropyl-1-(pyridin-3-ylmethyl)-1H-indole-6-carboxylate] the same measures were 241 nM (100) % and 241 nM.
On to `CCOC(=O)c1ccc2c(C(=O)NCc3ccc(F)c(F)c3)c(C(C)C)n(Cc3ncco3)c2c1` [Compound 47, Ethyl 3-(3,4-Difluorobenzylcarbamoyl)-2-isopropyl-1-(oxazol-2-ylmethyl)-1H-indole-6-carboxylate], for which, under setting [1], the IC50 worked out at 350 nM. Moreover, the “S1P3 (% inh)” value under setting [2] was 100%.
On the same counts, the results for `CCOC(=O)c1ccc2c(C(=O)NCc3cc(F)cc(F)c3)c(C(C)C)n(Cc3ccccn3)c2c1` [Compound 48, Ethyl 3-(3,5-Difluorobenzylcarbamoyl)-2-isopropyl-1-(pyridin-2-ylmethyl)-1H-indole-6-carboxylate] are 24 nM and 100%.
For `CCOC(=O)c1ccc2c(C(=O)NCc3cncc(F)c3)c(C(C)C)n(Cc3ccccn3)c2c1` [Compound 49, Ethyl 3-((5-Fluoropyridin-3-yl)methylcarbamoyl)-2-isopropyl-1-(pyridin-2-ylmethyl)-1H-indole-6-carboxylate] the same measures were 870 nM and 100%.
For `CCOC(=O)c1ccc2c(C(=O)NCc3ccc(F)cc3)c(C(C)C)n(Cc3ccccn3)c2c1` [Compound 50, Ethyl 3-(4-Fluorobenzylcarbamoyl)-2-isopropyl-1-(pyridin-2-ylmethyl)-1H-indole-6-carboxylate] the same measures were 69 nM and 100%.
As for `CC(C)c1c(C(=O)NCc2ccc(F)c(F)c2)c2ccc(CO)cc2n1Cc1ccccc1` [Compound 52, 1-Benzyl-N-(3,4-difluorobenzyl)-6-(hydroxymethyl)-2-isopropyl-1H-indole-3-carboxamide], under setting [1], the half-maximal inhibitory concentration (IC50) is 2000 nM. The “S1P3 (% inh)” value under setting [2] amounted to 85%.
For `CC(C)c1c(C(=O)NCc2ccc(F)c(F)c2)c2ccc(/C=N/O)cc2n1Cc1ccccc1` [Compound 55, (E)-1-Benzyl-N-(3,4-difluorobenzyl)-6-((hydroxyimino)methyl)-2-isopropyl-1H-indole-3-carboxamide] the same measures were 234 nM and 100%.
On the same counts, the results for `C#CCNC(=O)c1ccc2c(C(=O)NCc3ccc(F)c(F)c3)c(C(C)C)n(Cc3ccccc3)c2c1` [Compound 69, 1-Benzyl-N3-(3,4-difluorobenzyl)-2-isopropyl-N6-(prop-2-ynyl)-1H-indole-3,6-dicarboxamide] are 5000 nM and 98%.
Take `CC(C)c1c(C(=O)NCc2ccc(F)c(F)c2)c2ccc(C3=NCCO3)cc2n1Cc1ccccc1` [Compound 70, 1-Benzyl-N-(3,4-difluorobenzyl)-6-(4,5-dihydrooxazol-2-yl)-2-isopropyl-1H-indole-3-carboxamide]: the “S1P3 (% inh)” value was 36 nM (100) % and the half-maximal inhibitory concentration (IC50) stood at 36 nM.
Turning to `CC(C)c1c(C(=O)NCc2ccc(F)c(F)c2)c2ccc(C3=NC(C)(C)CO3)cc2n1Cc1ccccc1` [Compound 71, 1-Benzyl-N-(3,4-difluorobenzyl)-6-(4,4-dimethyl-4,5-dihydrooxazol-2-yl)-2-isopropyl-1H-indole-3-carboxamide], the IC50 under setting [1] amounted to 47 nM. Also, the “S1P3 (% inh)” value under setting [2] is reported as 97%.
Regarding `CC(C)c1c(C(=O)NCc2cncc(F)c2)c2ccc(C3=N[C@@H](C)CO3)cc2n1Cc1ccccc1` [Compound 72, (S)-1-Benzyl-N-((5-fluoropyridin-3-yl)methyl)-2-isopropyl-6-(4-methyl-4,5-dihydrooxazol-2-yl)-1H-indole-3-carboxamide], the “S1P3 (% inh)” value is 43 nM (99) % and the IC50 is 43 nM.

For the origin of these results see patent US8524917B2, “6-substituted indole-3-carboxylic acid amide compounds having sphingosine-1-phosphate (S1P) receptor antagonist biological activity” (Allergan, Inc., priority 2007, dated 2013).
